Patent US10131652B2, “Pyrimidinyloxy benzene derivatives as herbicides” (E. I. DU PONT DE NEMOURS AND COMPANY, priority 2014, dated 2018)

Assays:
Format in all cases: in vivo
[1] = tested on: Italian ryegrass (Lolium multiflorum); assay: Test B pre-/postemergence plant response
Procedure, shortened: (§1)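 Steps: plant seeds in loam soil–sand mix; spray soil preemergence, and in parallel spray 2–10 cm one- to two-leaf plants postemergence; hold ~10 days in greenhouse; visually rate injury against untreated controls (0 = no effect, 100 = complete control).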

[2] = tested on: barnyardgrass (Echinochloa crus-galli); assay: Test B pre-/postemergence plant response
Procedure, shortened: as §1

corn (Zea mays) = assay: Test B pre-/postemergence plant response
Procedure, shortened: as §1

[3] = tested on: giant foxtail (Setaria faberii); assay: Test B pre-/postemergence plant response
Procedure, shortened: as §1

kochia (Kochia scoparia) = assay: Test B pre-/postemergence plant response
Procedure, shortened: as §1

[4] = tested on: pigweed (Amaranthus retroflexus); assay: Test B pre-/postemergence plant response
Procedure, shortened: as §1

[5] = tested on: ragweed (common ragweed, Ambrosia elatior); assay: Test B pre-/postemergence plant response
Procedure, shortened: as §1

[6] = tested on: wheat (Triticum aestivum); assay: Test B pre-/postemergence plant response
Procedure, shortened: as §1

[7] = tested on: blackgrass (Alopecurus myosuroides); assay: Test B postemergence plant response
Procedure, shortened: (§2)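 Visual injury rating, 0–100 (0 = no effect, 100 = complete control), vs untreated controls ~10 days after postemergence spray; greenhouse; potted loam soil/sand; plants 2–10 cm, 1–2 leaf stage.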

[8] = tested on: galium (catchweed bedstraw, Galium aparine); assay: Test B postemergence plant response
Procedure, shortened: as §2

[9] = tested on: barnyardgrass (Echinochloa crus-galli); assay: Test C flooded paddy test plant response; conditions: Flood, 250 g ai/ha; scale of 0 to 100 where 0 is no effect and 100 is complete control; 13 to 15 days
Procedure, shortened: (§3)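 Visual injury ratings (0, no effect; 100, complete control) were assigned after 13 to 15 days in a greenhouse, comparing treated plants with controls. Compounds had been added straight into paddy water over 2-leaf-stage plants flooded to 3 cm.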

[10] = tested on: ducksalad (Heteranthera limosa); assay: Test C flooded paddy test plant response; conditions: Flood, 250 g ai/ha; scale of 0 to 100 where 0 is no effect and 100 is complete control; 13 to 15 days
Procedure, shortened: as §3

rice (Oryza sativa) = assay: Test C flooded paddy test plant response; conditions: Flood, 250 g ai/ha; scale of 0 to 100 where 0 is no effect and 100 is complete control; 13 to 15 days
Procedure, shortened: as §3

[11] = tested on: small-flower umbrella sedge (Cyperus difformis); assay: Test C flooded paddy test plant response; conditions: Flood, 250 g ai/ha; scale of 0 to 100 where 0 is no effect and 100 is complete control; 13 to 15 days
Procedure, shortened: as §3

[12] = 31 g ai/ha, Preemergence, 0 to 100 scale where 0 is no effect and 100 is complete control
[13] = 125 g ai/ha, postemergence, 0 to 100 scale, 0 no effect, 100 complete control
[14] = Postemergence, 31 g ai/ha, 0 to 100 scale (0 no effect, 100 complete control)
[15] = Preemergence, 125 g ai/ha, 0 to 100 scale (0 no effect, 100 complete control)
[16] = Postemergence, 1000 g ai/ha, 0 to 100 scale (0 no effect, 100 complete control)
[17] = Preemergence, 1000 g ai/ha, 0 to 100 scale (0 no effect, 100 complete control)

SMILES	Plant response rating, Ryegrass, Italian [1, 12]	Plant response rating, Ryegrass, Italian [1, 13]	Plant response rating, Ryegrass, Italian [1, 14]	Ryegrass, Italian plant response rating [1, 15]	Plant response rating, Barnyardgrass [2, 12]	Plant response rating, Barnyardgrass [2, 13]	Plant response rating, Barnyardgrass [2, 14]	Barnyardgrass plant response rating [2, 15]	Plant response rating, Corn (corn (Zea mays); [13])	Plant response rating, Corn (corn (Zea mays); [14])	Plant response rating, Foxtail, Giant [3, 12]	Plant response rating, Foxtail, Giant [3, 13]	Plant response rating, Foxtail, Giant [3, 14]	Foxtail, Giant plant response rating [3, 15]	Plant response rating, Kochia (kochia (Kochia scoparia); [12])	Plant response rating, Kochia (kochia (Kochia scoparia); [13])	Barnyardgrass plant response rating [9]	Ducksalad plant response rating [10]	Rice plant response rating (rice (Oryza sativa))	Sedge, Umbrella plant response rating [11]	other results
Clc1cnc(Oc2ccccc2-c2cc(Cl)cnn2)nc1 [Compound 189]	0	0	0	0	0	0	0	0	0	0	0	0	0	0	0	0	0	0	0	0	Plant response rating, Kochia (kochia (Kochia scoparia); [14]): 0; Kochia plant response rating (kochia (Kochia scoparia); [15]): 0; Plant response rating, Pigweed [4, 12]: 0; Plant response rating, Pigweed [4, 13]: 0; Plant response rating, Pigweed [4, 14]: 0; Pigweed plant response rating [4, 15]: 0; Plant response rating, Ragweed [5, 12]: 0; Plant response rating, Ragweed [5, 13]: 0; Plant response rating, Ragweed [5, 14]: 0; Ragweed plant response rating [5, 15]: 0; Plant response rating, Wheat [6, 13]: 0; Plant response rating, Wheat [6, 14]: 0; Plant response rating, Blackgrass [7, 13]: 0; Plant response rating, Blackgrass [7, 14]: 0; Plant response rating, Galium [8, 13]: 0; Plant response rating, Galium [8, 14]: 0
Cc1cnc(Oc2ccccc2-c2cc(C(C)(F)F)on2)nc1 [Compound 173]	0	20	0	20	60	70	30	90	40	10	50	90	30	100	70	100	0	80	0	60	Plant response rating, Kochia (kochia (Kochia scoparia); [14]): 70; Kochia plant response rating (kochia (Kochia scoparia); [15]): 100; Plant response rating, Pigweed [4, 12]: 80; Plant response rating, Pigweed [4, 13]: 80; Plant response rating, Pigweed [4, 14]: 60; Pigweed plant response rating [4, 15]: 100; Plant response rating, Ragweed [5, 12]: 10; Plant response rating, Ragweed [5, 13]: 60; Plant response rating, Ragweed [5, 14]: 40; Ragweed plant response rating [5, 15]: 70; Plant response rating, Wheat [6, 13]: 0; Plant response rating, Wheat [6, 14]: 0; Plant response rating, Blackgrass [7, 13]: 70; Plant response rating, Blackgrass [7, 14]: 30; Plant response rating, Galium [8, 13]: 90; Plant response rating, Galium [8, 14]: 50
Fc1cccc(Oc2ncc(Cl)cn2)c1-c1cnccn1 [Compound 165]	0	0	0	0	0	20	0	10	0	0	0	20	10	10	0	40	0	0	0	0	Plant response rating, Kochia (kochia (Kochia scoparia); [14]): 20; Kochia plant response rating (kochia (Kochia scoparia); [15]): 60; Plant response rating, Pigweed [4, 12]: 30; Plant response rating, Pigweed [4, 13]: 50; Plant response rating, Pigweed [4, 14]: 30; Pigweed plant response rating [4, 15]: 80; Plant response rating, Ragweed [5, 12]: 20; Plant response rating, Ragweed [5, 13]: 60; Plant response rating, Ragweed [5, 14]: 30; Ragweed plant response rating [5, 15]: 50; Plant response rating, Wheat [6, 13]: 0; Plant response rating, Wheat [6, 14]: 0; Plant response rating, Blackgrass [7, 13]: 30; Plant response rating, Blackgrass [7, 14]: 20; Plant response rating, Galium [8, 13]: 40; Plant response rating, Galium [8, 14]: 20
Cc1cc(-c2ccccc2Oc2ncc(Cl)cn2)sn1 [Compound 171]																	0	0	0	0	Plant response rating, Ryegrass, Italian [1, 16]: 10; Plant response rating, Ryegrass, Italian [1, 17]: 10; Plant response rating, Barnyardgrass [2, 16]: 30; Plant response rating, Barnyardgrass [2, 17]: 70; Plant response rating, Corn (corn (Zea mays); [16]): 10; Plant response rating, Foxtail, Giant [3, 16]: 100; Plant response rating, Foxtail, Giant [3, 17]: 100; Plant response rating, Kochia (kochia (Kochia scoparia); [16]): 100; Plant response rating, Kochia (kochia (Kochia scoparia); [17]): 90; Plant response rating, Pigweed [4, 16]: 100; Plant response rating, Pigweed [4, 17]: 100; Plant response rating, Ragweed [5, 16]: 30; Plant response rating, Ragweed [5, 17]: 0; Plant response rating, Wheat [6, 16]: 30; Plant response rating, Blackgrass [7, 16]: 80; Plant response rating, Galium [8, 16]: 100
